Measurements: patent publication US20230107216A1, “PANTETHEINE DERIVATIVES AND USES THEREOF” (Comet Therapeutics, Inc., priority 2018, published 2023)
Like-named read-outs stand apart in the source and are kept apart here.

Assays:
[1] = system: Methylmalonic Acidemia (MMA) primary fibroblasts GM01673; experiment: Mitochondrial respiration, XFe96 Extracellular Flux Analyzer (OCR/ECAR), MMA fibroblasts GM01673; assay type: cell-based; conditions: Homo sapiens, Fibroblast
Procedure: The effect of the compounds of the present disclosure on mitochondrial respiration was measured with a XFe96 Extracellular Flux Analyzer (Seahorse Bioscience, Agilent Technologies) and Oxygen consumption Rate (OCR) and Extracellular acidification rate (ECAR) determined.
Cell culture and treatments. Primary adherent fibroblasts were cultured in minimum essential medium (MEM) (Gibco, 25030081) supplemented with 2 mM L-Glutamine (Gibco, 25030081), 15% fetal bovine serum (FBS) (Gibco, 26400044) and 1% penicillin/streptomycin (Gibco, 5140122) at 37° C. and 5% CO2. Cells were collected for either passaging or experiment at ˜70-80% confluence. Cells were obtained by trypsinization and seeded at 20000 cells/well in cell culture microplates (Seahorse Bioscience, 101085-004) and allowed to adhere for 16 hours in culture media.
By profiling different primary cells and/or optimizing their culture media or environmental components one can select cell lines and/or conditions that are appropriate for the biological or disease model. In the present example, 24 hours prior to OCR and ECAR profiling, media was changed to Dulbecco's Modified Eagle Medium (DMEM, Agilent Seahorse 103575-100) with the appropriate supplements for the different primary cells (10 mM glucose, 2 mM L-glutamine, 1 mM pyruvate, 10% FBS; 1 mM glucose, 2 mM L-glutamine, 1 mM pyruvate, 10% FBS; 10 mM glucose, 10% FBS; 5 mM glucose 10% FBS; 1 mM glucose 10% FBS). Cells used in this example were: Propionic Acidemia (PA) (GM00371, GM03590 Coriell Institute for Medical Research, Tsi 6337, Tsi 4626, Tsi 3618 Trans-Hit Bio), Methylmalonic Acidemia (MMA) (GM01673, Coriell Institute for Medical Research, Tsi 5224 Trans-Hit Bio), Branched chain ketoacid dehydrogenase kinase (BCKDK) (GM00612, GM00649 Coriell Institute for Medical Research), Subnormal activation of pyruvate dehydrogenase complex (PDH) (GM01503 Coriell Institute for Medical Research), Very long-chain acyl-CoA dehydrogenase (VLCAD) (GM17475), Leigh Syndrome (LS) (GM03672, GM13411 Coriell Institute for Medical Research), Pyruvate Carboxylase Deficiency (PC) (GM00444 Coriell Institute for Medical Research), Glutaric Acidemia-I (GA) (GM10653), Friedreich's Ataxia (FXN) (GM04078 Coriell Institute for Medical Research, Huntington's disease (HD) (GM21756 Coriell Institute for Medical Research), Ornithine Transcarbamylase Deficiency (OTC) (GM12756 Coriell Institute for Medical Research), Kearns-Sayre Syndrome (KSS) (GM06225 Coriell Institute for Medical Research).
One hour before the assay, the cells were washed with freshly prepared unbuffered serum free-Seahorse XF Assay medium (Seahorse Bioscience, North America, USA, 103575-100) with the same supplements as for the previous 24 hour incubation.
After baseline measurements of OCR, cells were challenged with compounds of the present disclosure at different concentrations (10 to 50 μM) or vehicle (DMSO, 0.1%) and a post-compound baseline was recorded. OCR was measured after sequentially adding to each well 1 μg/ml oligomycin (inhibitor of ATP synthase Sigma-Aldrich, 753531), then maximal OCR was determined with carbonyl cyanide 4-(trifluoromethoxy) phenylhydrazone (FCCP, Sigma-Aldrich, C2920), (uncoupler of oxidative phosphorylation) and 0.5 μM of rotenone (Sigma-Aldrich, R8875) plus antimycin A (Sigma-Aldrich, A8674) (inhibitors of mitochondrial complex I and III) for determination of rotenone-antimycin insensitive respiration together with Hoechst for nuclear staining in situ when normalized to cell counts. After the analysis and nuclear staining, the XFp microplate was transferred to the Cytation 5, and the nuclear images were captured, the individual nuclei were identified and counted by BioTek Gen5 software. Data were expressed as pmol of O2 per minute and normalized by nuclear staining and baselined to pre-compound addition.
Assay conditions were as stated below.
Assay specifics on assay conditions are indicated below when readouts were normalized to cell counts. […]

[2] = system: Propionic Acidemia (PA) primary fibroblasts GM00371; experiment: Mitochondrial respiration, XFe96 Extracellular Flux Analyzer (OCR/ECAR), PA fibroblasts GM00371; assay type: cell-based; conditions: Homo sapiens, Fibroblast, 50 μM, read-out: Increase in Maximal Respiratory Capacity AUC
[3] = system: Venular Endothelial cells (HUVEC) (4H system); experiment: BioMAP 4H system (IL-4 and histamine); assay type: cell-based, human; conditions: Homo sapiens, HUVEC, 24 h; 1 uM; procedure of Example 826; read-out: % decrease in E-Selectin
[4] = system: Peripheral blood mononuclear cells co-cultured with B-cells (BT system)
[5] = system: Dermal fibroblasts (HDF3CGF system); experiment: BioMAP HDF3CGF system (IL-1β, TNFα, IFNγ, EGF, bFGF, PDGF-BB); assay type: cell-based, human; conditions: 10 uM
[6] = system: Bronchial epithelial cells (BE3C system); experiment: BioMAP BE3C system (IL-1β, TNFα, IFNγ); assay type: cell-based, human; conditions: Homo sapiens, Epithelial cell, 24 h; 10 uM; procedure of Example 831; read-out: % decrease in MMP-1
[7] = system: Peripheral blood mononuclear cells co-cultured with venular endothelial cells (HUVEC) (LPS system); experiment: BioMAP LPS system; assay type: cell-based, human; conditions: Homo sapiens, HUVEC, 24 h, procedure of Example 827
[8] = system: primary culture of rat embryo mesencephalic cells (microglia, astrocytes and neurons) exposed to LPS; experiment: Neuroprotective effect on damage induced by LPS on culture of mesencephalic neurons (NO, TNF-α, IL-1β, TH positive neurons); assay type: cell-based; conditions: 50 uM, after 5 days of LPS exposure; for inhibition at 50 µM: Rattus norvegicus, Neuron, 120 h, read-out: % reversion of TH positive neurons
Procedure: Drug preparation. […] The stock solutions will be prepared 1000× the concentration in 100% DMSO. The final concentration of the vehicle (DMSO) is set at 0.1%.
Test animals. Pregnant Wistar rats (Janvier; France) are used for the study. They are group-housed and maintained in a room with controlled temperature (21-22° C.) and a reversed light-dark cycle (12h/12h; lights on: 17:30-05:30; lights off: 05:30-17:30) with food and water available ad libitum.
The protocol is performed in 3 independent cultures. For each culture, each condition is performed in sextuplicate.
Female rat of 15 days gestation is killed by cervical dislocation. Fetuses are removed from the uterus and their brains are harvested and placed in ice-cold medium (Leibovitz's L15 medium, Gibco). Only ventral mesencephalic flexure is used for the cell preparations. The midbrain is dissociated by trypsinization. The reaction is stopped, and the suspension is triturated and centrifuged. The pellet of dissociated cells is resuspended in culture medium consisted of DMEM-F12 (Gibco), containing 10% FBS (ATCC), 10% Horse serum (Gibco) and 2 mM L-glutamine (Gibco). Viable cells are counted and seeded on 96-well plates, precoated with poly-L-lysine. Cells are maintained in a humidified incubator at 37° C. in 5% CO2-95% air atmosphere. Half of the medium is changed on day 2 and day 5.
Treatment. On day 7, culture media are removed and replaced by new medium consisting of DMEM-F12 (Gibco) supplemented with 2% FBS (ATCC), 2% Horse serum (Gibco) and 2 mM L-glutamine (Gibco) and containing vehicle or test substances. After 1-hour exposure, LPS at 10 ng/ml is added and exposure further continued for 24 hours or 5 days period.
Inflammatory response measurement and neuronal death evaluation. NO production is measured in the media 24h and 5 days after LPS exposure using the Griess reagent kit (Molecular Probes). The Griess reagent Assay is a colorimetric reaction assay which measures the conversion of a sulfanilic salt into an azo dye product by nitrite. Visible wavelength absorbance data is collected using a 96-well plate reader at 570 nm (Multiskan EX, Thermo Fisher, France). IL-1β and TNF-α release are measured in the media 24h after LPS exposure using the ELISA development kit (PeproTech). The ELISA plate, previously coated with anti-IL-1β or anti-TNF-αantibody at 1 μg/ml, is incubated 1h with PBS containing 1% of BSA (bovine serum albumin). After washing four times with PBS containing 0.05% of Tween-20, the plate is successively incubated 2h with supernatant, 2h with biotinylated antibody at 0.5 μg/ml in PBS containing 0.1% of BSA and 0.05% of Tween-20, 45 min with Avidin-HRP conjugated at 1/2000 and 30 min with color ABTS substrate (Sigma). Visible wavelength absorbance data is collected using a 96-well plate reader at 405 nm with wavelength correction set at 650 nm (Multiskan EX, Thermo Fisher, France).
Immunodetection of tyrosine hydroxylase positive neurons. On day 12 (5 days after LPS exposure), cultures are fixed 30 min at 4° C. with paraformaldehyde in PBS (4%, Sigma). Then, cells are successively permeabilized with 0.1% Triton X100 for 30 min, saturated with PBS containing 3% of BSA (bovine serum albumin) and are incubated 2h with anti-tyrosine hydroxylase antibody (Sigma, 1:10000; clone TH-2) at 1/10 000 in PBS containing 0.5% of BSA. Cells are washed three times with PBS containing 0.5% of BSA, and they are incubated 1h with goat anti mouse antibody coupled with AF488 (Invitrogen A11001) diluted at 1/1000 in PBS containing 0.5% of BSA. Finally, nuclei are stained with DAPI at 1/1000 in PBS containing 0.5% of BSA. After rinsing with PBS, the plate is visualized and examined with Cell Insight HCS (Thermo Scientific) to determine the number of tyrosine hydroxylase positive cells per well.
Statistical Analysis. The drug-induced effect on NO and cytokines is calculated by setting the response of the LPS-stimulated control as 100%. […]

[9] = system: HepG2 cells; experiment: Glucose uptake (Glucose Uptake-Glo); assay type: cell-based; conditions: Homo sapiens, 50 uM, read-out: % increase in Glucose Uptake
[10] = system: Peripheral blood mononuclear cells co-cultured with B-cells (BT system); experiment: cells; conditions: Homo sapiens, 72 h, read-out: % increase in sIL-6
[11] = system: Bronchial epithelial cells co-cultured with dermal fibroblast (BF4T system); experiment: BioMAP BF4T system (TNFα and IL-4); assay type: cell-based, human; conditions: Homo sapiens, 24 h; 10 uM; procedure of Example 830; read-out: % increase in VCAM-1
[12] = system: primary fibroblasts (healthy controls and PA, MMA, BCKDK, PDH, VLCAD, LS, PC, GA, VLCFA, KSS, FXN, HD); experiment: Measurement of ROS (H2DCFDA) in primary fibroblasts; assay type: cell-based, human; conditions: Homo sapiens, Fibroblast, PC GM00444, procedure Example 812, Assay Condition C
How it was run: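 Patient and healthy-control primary fibroblasts switched to supplemented DMEM 24 h before assay, then treated with compound (10 μM) plus H2DCFDA (22 μM) for 2 h (PA, MMA lines) or 24 h (other lines). Kinetic fluorescence at 492/527 nm over 60 min; only live cells analysed.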

[13] = assay condition A (10 mM glucose, 2 mM L-glutamine, 1 mM pyruvate, 10% FBS), read-out: Increase in Maximal Respiratory Capacity AUC

In the case of `COC(=O)CC(SCCNC(=O)CCNC(=O)[C@H](O)C(C)(C)COC(=O)CN)C(=O)OC` (stereo partly shown) [Compound 172], the activation at 10 µM [1, 13] is reported as at least 10%, the activation at 10 µM ([1]; assay condition D (1 mM glucose, 10% FBS), read-out: Increase in Maximal Respiratory Capacity AUC) is reported as at least 10% and the activation at 50 µM ([2]; assay condition A (10 mM glucose, 2 mM L-glutamine, 1 mM pyruvate, 10% FBS)) is reported as at least 10%.
For `CC(C)(CO)[C@@H](O)C(=O)NCCC(=O)NCCSC(=O)CC(=O)N[C@@H](CCCCN)C(=O)O` [Compound 485], the activation at 50 µM [1, 13] was at least 10%.
`CC(=O)CC(=O)SCCNC(=O)CCNC(=O)[C@H](O)C(C)(C)COC(=O)O[C@H](CC(=O)[O-])C[N+](C)(C)C` [Compound 185, (3R,9R)-9-hydroxy-8,8-dimethyl-5,10,14,19,21-pentaoxo-3-((trimethylammonio)methyl)-4,6-dioxa-18-thia-11,15-diazadocosanoate] was tested, and the inhibition at 1 µM [3] was at least 10%, the “% increase in B-cell Proliferation” value ([4]; 1 uM, procedure of Example 829) was at least 10% and the “% increase in PBMC cytotoxicity” value ([4]; human, 72 h, 1 µM) was at least 10%. For the same compound, the “% increase in SRB” value [5] was at least 10%, the activation at 10 µM ([5]; Homo sapiens, Fibroblast, 72 h, read-out: % increase in 72 Hour Proliferation) was at least 10% and the inhibition at 10 µM [6] was at least 10%. The inhibition at 1 µM ([7]; 1 uM, read-out: % decrease in sPGE2) was at least 10%, the inhibition at 10 µM ([7]; 10 uM, read-out: % decrease in IL-1α) was at least 10% and the activation at 10 µM ([7]; 10 uM, read-out: % increase in sTNFα) was at least 10%. The activation at 50 µM ([2]; assay condition C (10 mM glucose, 10% FBS)) was at least 10%, the “% decrease in NO release relative to LPS alone” value [8] was at least 20% and the inhibition at 50 µM ([8]; list at threshold 15%) was at least 15%. It also gave an inhibition at 50 µM ([8]; list at threshold 50%) of at least 50%, an activation at 50 µM [9] of at least 30% and an activation at 1 µM [10] of at least 10%. The activation at 10 µM [11] was at least 10%.
`CC(C)(CO)[C@@H](O)C(=O)NCCC(=O)NCCSC(=O)CC[C@H](N)C(=O)O` [Compound 385, (S)-2-amino-5-((2-(3-((R)-2,4-dihydroxy-3,3-dimethylbutanamido)propanamido)ethyl)thio)-5-oxopentanoic acid] showed an activation at 10 µM ([1]; assay condition A (10 mM glucose, 2 mM L-glutamine, 1 mM pyruvate, 10% FBS), read-out: Increase in Spare Capacity AUC) of at least 10%, an inhibition at 10 µM ([12]; read-out: Decreased ROS by at least 10%) of at least 10% and an inhibition at 10 µM ([12]; read-out: Decreased ROS by at least 30%) of at least 30%. It also gave an activation at 50 µM ([2]; assay condition D (1 mM glucose, 10% FBS)) of at least 10%.
Work on `CC(=O)N[C@@H](CC(=O)CC(=O)SCCNC(=O)CCNC(=O)[C@H](O)C(C)(C)CO)C(=O)O` [Compound 447] yielded an activation at 50 µM [1, 13] of at least 10%.
